In patent US20050100519A1, “Topical L-carnitine compositions” (Lonza Inc., priority 2003, published 2005):
Entries after “also recorded” stand apart in the source; their conditions may differ.

Tests used:
[1] = tested on: skin; assay: Exfoliating efficacy of topical creams by the dansyl chloride method (skin turnover time); type: in vivo, human
Description: The exfoliating efficacy of topical L-carnitine compositions of varying pH was determined as follows. L-carnitine containing reparative/exfoliating creams with a UV sunscreen were prepared as described in Example 2, except (1) phase B included 10.00% urea, 3.0% Natrulon® H-10, and 45.50% deionized water, (2) phase C included (a) 5.6% L-carnitine, (b) q,s. of sodium hydroxide and hydrochloric acid to adjust the pH of the cream to 4, 5, 6, or 7, and (c) 20.1% deionized water.
Each topical composition (creams) was tested as follows. The composition was applied twice daily to skin (approximately 0.2 g/10 cm^2) over a period of 20 days, and the exfoliation was measured using the dansyl chloride method.
The dansyl chloride method is a method of measuring skin turnover time. The method involves first treating the skin with a fluorescent dye (namely, dansyl chloride) and then, with the aid of a UV light, observing the disappearance of the fluorescence over time. When the site no longer fluoresces, the skin is considered to have turned over.
The exfoliating efficacy of the glycolic acid cream was compared to that of the L-carnitine creams at pH 4 and pH 7 described in Example 7 by the procedure described in Example 7.
The exfoliating efficacy of topical compositions (all at pH 7) containing 2.8% or 5.6% L-carnitine or 2.8% or 5.6% racemic (DL) carnitine was determined by the method described in Example 7. The 5.6% L-carnitine composition tested was that described in Example 7. The 5.6% DL-carnitine composition was prepared as described in Example 7, replacing the 5.6% L-carnitine with 5.6% DL-carnitine. The 2.8% L-carnitine and 2.8% DL-carnitine compositions were prepared as described in Example 7, replacing the 5.6% L-carnitine with (1) 2.8% L-carnitine and 2.8% DL-carnitine, respectively, and (2) 2.8% deionized water. DL-carntine is a racemic mixture containing 50% L-carnitine and 50% D-carnitine.
The exfoliating efficacy of topical compositions including (1) papain, (2) 5.6% L-carnitine, (3) 5.6% glycolic acid, or (4) papain with 5.6% L-carnitine was determined as follows.
The compositions were tested by the procedure described in Example 7.

[2] = tested on: skin; assay: Moisturizing efficacy: water content of the skin measured with a corneometer; type: in vivo, human; conditions: 5% in cream
Description: Each composition was applied twice daily to skin (0.2 g/10 cm^2) over a period of 10 days, and the water content of the skin was measured with a corneometer. Untreated skin was also tested as a control.

`C[N+](C)(C)C[C@H](O)CC(=O)[O-]` [L-carnitine] was tested, and the “exfoliating efficacy compared with racemic (DL) carnitine” value ([1]; 2.8% or 5.6% creams, all at pH 7 (FIG. 3)) was “more effective as an exfoliant than racemic carnitine at the same concentration; also recorded: exfoliates skin more effectively and faster than racemic carnitine”, the “exfoliating efficacy, effect of composition pH” value ([1]; 5.6% L-carnitine cream at pH 4, 5, 6 or 7, applied twice daily over 20 days (FIG. 1)) was “most effective at the optimal pH for enzymes, i.e., at a pH around 7; also recorded: exfoliates skin more effectively and faster in a topical composition at a pH of 7 than a similar composition at a pH of 4, 5, or 6” and the “exfoliating efficacy compared with glycolic acid” value ([1]; L-carnitine cream, alone or with papain, vs 5.6% glycolic acid cream pH 4.0 (FIG. 2, FIG. 4)) was “exfoliates skin more effectively and faster than glycolic acid”. For the same compound, the “ability to exfoliate and reduce the time needed for skin turnover” value ([1]; pH 4-7) was “exhibits the ability to exfoliate and to significantly reduce the time needed for skin turnover”.

decaglycerol was tested, and the “Water content of the skin after 1 day of treatment” value ([2]; twice daily 0.2 g/10 cm^2, 1 day) was 44.4%, the “Water content of the skin after 2 days of treatment” value ([2]; twice daily 0.2 g/10 cm^2, 2 days) was 54.2% and the “Water content of the skin after 3 days of treatment” value ([2]; twice daily 0.2 g/10 cm^2, 3 days) was 56.9%. For the same compound, the “Water content of the skin after 6 days of treatment” value ([2]; twice daily 0.2 g/10 cm^2, 6 days) was 53.0%, the “Water content of the skin after 8 days of treatment” value ([2]; twice daily 0.2 g/10 cm^2, 8 days) was 59.2% and the “Water content of the skin after 9 days of treatment” value ([2]; twice daily 0.2 g/10 cm^2, 9 days) was 62.8%. For the same compound, the “Water content of the skin after 10 days of treatment” value ([2]; twice daily 0.2 g/10 cm^2, 10 days) was 60.5%.
